Data published in ChEMBL document CHEMBL5696442, “Discovery of type II inhibitors of TGFβ-activated kinase 1 (TAK1) and mitogen-activated protein kinase kinase kinase kinase 2 (MAP4K2)” (J Med Chem, 2015).
The source made the active and inactive calls. The calls are words filed in the database; no cut-off is given here.

What was measured:
[1] = target: Serine/threonine-protein kinase 38-like (Homo sapiens) (UniProt Q9Y2H1); experiment: Inhibition of NDR2 Lys2 labeling site in human A-375 cells at 5 uM by KiNativ Profiling analysis relative to control; type: cell-based
Chain of Serine/threonine-protein kinase 38-like (Homo sapiens) (Q9Y2H1 2-464 limits assumed): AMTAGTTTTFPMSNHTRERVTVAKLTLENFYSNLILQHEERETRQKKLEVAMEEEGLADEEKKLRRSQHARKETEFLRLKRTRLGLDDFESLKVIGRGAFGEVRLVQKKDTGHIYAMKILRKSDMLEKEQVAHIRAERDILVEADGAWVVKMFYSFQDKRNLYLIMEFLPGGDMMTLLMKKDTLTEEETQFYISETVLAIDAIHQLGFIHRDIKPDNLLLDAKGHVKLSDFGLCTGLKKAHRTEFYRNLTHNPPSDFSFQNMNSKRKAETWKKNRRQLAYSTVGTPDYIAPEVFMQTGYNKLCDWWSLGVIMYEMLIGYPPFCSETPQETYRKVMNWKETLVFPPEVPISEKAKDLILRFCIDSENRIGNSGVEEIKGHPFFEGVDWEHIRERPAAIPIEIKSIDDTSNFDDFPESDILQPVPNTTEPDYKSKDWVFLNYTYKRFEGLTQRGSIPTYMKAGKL

[2] = target: Mitogen-activated protein kinase 11 (Homo sapiens) (UniProt Q15759); experiment: Inhibition of p38 beta in human A-375 cells at 5 uM by KiNativ Profiling analysis relative to control; type: cell-based
Chain of Mitogen-activated protein kinase 11 (Homo sapiens) (Q15759 whole entry): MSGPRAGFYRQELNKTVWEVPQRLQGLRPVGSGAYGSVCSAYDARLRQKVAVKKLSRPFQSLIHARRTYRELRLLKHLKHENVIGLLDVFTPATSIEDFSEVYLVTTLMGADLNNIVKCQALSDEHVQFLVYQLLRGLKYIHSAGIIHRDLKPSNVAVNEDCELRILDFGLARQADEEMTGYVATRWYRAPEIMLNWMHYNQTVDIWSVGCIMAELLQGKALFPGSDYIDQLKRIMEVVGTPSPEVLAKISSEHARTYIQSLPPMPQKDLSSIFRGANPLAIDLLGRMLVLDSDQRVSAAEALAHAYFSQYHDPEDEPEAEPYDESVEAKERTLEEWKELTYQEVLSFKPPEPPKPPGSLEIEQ

[3] = tested on: Mast/stem cell growth factor receptor Kit (Homo sapiens), P10721 [A829P]; experiment: Inhibition of KIT A829P mutant (unknown origin) at 1 uM by Ambit Kinomescan binding assay relative to control; values are per cent of control
Chain of Mast/stem cell growth factor receptor Kit (Homo sapiens), P10721 [A829P] (P10721 whole entry A829P): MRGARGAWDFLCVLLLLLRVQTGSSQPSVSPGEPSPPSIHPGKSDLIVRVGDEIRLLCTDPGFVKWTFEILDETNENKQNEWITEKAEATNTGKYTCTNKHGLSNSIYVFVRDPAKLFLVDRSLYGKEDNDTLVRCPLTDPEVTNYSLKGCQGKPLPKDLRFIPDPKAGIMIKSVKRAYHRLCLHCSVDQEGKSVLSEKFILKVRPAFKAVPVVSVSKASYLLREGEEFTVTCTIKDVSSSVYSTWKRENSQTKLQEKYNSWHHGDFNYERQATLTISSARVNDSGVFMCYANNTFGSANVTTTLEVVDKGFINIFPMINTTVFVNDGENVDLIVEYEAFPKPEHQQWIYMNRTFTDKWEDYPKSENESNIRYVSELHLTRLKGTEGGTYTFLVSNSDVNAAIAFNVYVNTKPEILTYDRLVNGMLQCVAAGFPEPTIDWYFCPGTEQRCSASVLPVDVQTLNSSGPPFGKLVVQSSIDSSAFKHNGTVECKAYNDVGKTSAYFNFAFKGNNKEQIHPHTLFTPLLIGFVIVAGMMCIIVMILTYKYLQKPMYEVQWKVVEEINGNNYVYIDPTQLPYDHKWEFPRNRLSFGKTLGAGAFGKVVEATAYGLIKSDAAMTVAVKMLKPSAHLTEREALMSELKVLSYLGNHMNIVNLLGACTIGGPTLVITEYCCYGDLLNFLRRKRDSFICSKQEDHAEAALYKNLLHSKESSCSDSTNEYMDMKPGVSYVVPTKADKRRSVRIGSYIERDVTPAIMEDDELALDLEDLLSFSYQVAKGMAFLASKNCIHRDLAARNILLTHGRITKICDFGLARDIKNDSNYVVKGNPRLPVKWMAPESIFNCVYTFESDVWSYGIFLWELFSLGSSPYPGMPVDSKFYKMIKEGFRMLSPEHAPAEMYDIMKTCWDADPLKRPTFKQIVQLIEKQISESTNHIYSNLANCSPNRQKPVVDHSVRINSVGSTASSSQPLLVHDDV

293-IL-1R = experiment: Inhibition of IL-1alpha induced p105 phosphorylation level in human 293-IL-1R cells preincubated for 1 hr followed by IL-1 alpha stimulation and measured after 30 mins by Western blot analysis; type: functional, cell-based; conditions: dose 0.01-10 µM
[4] = target: Casein kinase I isoform delta (Homo sapiens) (UniProt P48730); experiment: Inhibition of CSNK1D (unknown origin) at 10 uM by Ambit Kinomescan binding assay
Chain of Casein kinase I isoform delta (Homo sapiens) (P48730 whole entry, looked up, canonical isoform): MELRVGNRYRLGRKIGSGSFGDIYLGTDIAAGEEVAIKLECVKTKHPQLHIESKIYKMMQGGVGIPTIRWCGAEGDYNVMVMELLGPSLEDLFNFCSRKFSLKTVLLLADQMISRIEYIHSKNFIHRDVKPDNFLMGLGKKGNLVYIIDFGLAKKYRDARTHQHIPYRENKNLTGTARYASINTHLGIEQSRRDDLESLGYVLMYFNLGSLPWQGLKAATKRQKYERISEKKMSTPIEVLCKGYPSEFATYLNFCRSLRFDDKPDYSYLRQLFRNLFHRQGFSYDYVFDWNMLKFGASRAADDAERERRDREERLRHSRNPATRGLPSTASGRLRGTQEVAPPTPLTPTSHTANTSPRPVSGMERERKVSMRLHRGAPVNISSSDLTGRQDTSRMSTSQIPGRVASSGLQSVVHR

[5] = target: Cyclin-dependent kinase 20 (Homo sapiens) (UniProt Q8IZL9); experiment: Inhibition of CCRK Lys2 labeling site in human A-375 cells at 5 uM by KiNativ Profiling analysis relative to control; type: cell-based
Chain of Cyclin-dependent kinase 20 (Homo sapiens) (Q8IZL9 whole entry): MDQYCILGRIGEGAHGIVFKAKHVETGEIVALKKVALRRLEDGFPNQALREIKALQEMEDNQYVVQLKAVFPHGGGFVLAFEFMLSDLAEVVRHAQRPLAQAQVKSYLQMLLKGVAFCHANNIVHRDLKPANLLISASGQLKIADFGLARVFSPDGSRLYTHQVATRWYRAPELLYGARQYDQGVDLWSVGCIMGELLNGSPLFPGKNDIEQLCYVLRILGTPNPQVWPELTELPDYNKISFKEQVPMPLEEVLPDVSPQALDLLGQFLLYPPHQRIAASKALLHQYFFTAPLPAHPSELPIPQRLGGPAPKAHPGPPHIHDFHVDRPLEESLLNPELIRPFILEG

[6] = target: Cyclin-dependent kinase 16 (Homo sapiens) (UniProt Q00536); experiment: Inhibition of PCTAIRE1 Lys1 labeling site in human A-375 cells at 0.05 uM by KiNativ Profiling analysis relative to control; type: cell-based
Chain of Cyclin-dependent kinase 16 (Homo sapiens) (Q00536 whole entry): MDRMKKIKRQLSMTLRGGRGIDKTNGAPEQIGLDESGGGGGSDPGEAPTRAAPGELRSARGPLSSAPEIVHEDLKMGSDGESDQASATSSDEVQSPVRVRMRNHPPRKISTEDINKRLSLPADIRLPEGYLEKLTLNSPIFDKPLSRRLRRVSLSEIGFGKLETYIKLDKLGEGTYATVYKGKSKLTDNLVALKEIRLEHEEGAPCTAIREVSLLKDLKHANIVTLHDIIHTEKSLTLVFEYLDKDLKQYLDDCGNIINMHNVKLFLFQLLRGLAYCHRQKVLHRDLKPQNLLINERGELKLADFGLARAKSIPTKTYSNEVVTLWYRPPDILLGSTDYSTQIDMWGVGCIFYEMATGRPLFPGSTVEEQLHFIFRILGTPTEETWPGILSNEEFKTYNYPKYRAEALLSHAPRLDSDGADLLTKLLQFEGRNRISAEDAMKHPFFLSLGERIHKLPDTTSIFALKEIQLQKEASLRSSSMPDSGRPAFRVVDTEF

[7] = target: T1, Serine/threonine-protein kinase Chk1 (Homo sapiens) (UniProt O14757); experiment: Inhibition of CHK1 in human Huh-7 cells at 10 uM by KiNativ Profiling analysis relative to control; type: cell-based
T1 sequence (whole entry): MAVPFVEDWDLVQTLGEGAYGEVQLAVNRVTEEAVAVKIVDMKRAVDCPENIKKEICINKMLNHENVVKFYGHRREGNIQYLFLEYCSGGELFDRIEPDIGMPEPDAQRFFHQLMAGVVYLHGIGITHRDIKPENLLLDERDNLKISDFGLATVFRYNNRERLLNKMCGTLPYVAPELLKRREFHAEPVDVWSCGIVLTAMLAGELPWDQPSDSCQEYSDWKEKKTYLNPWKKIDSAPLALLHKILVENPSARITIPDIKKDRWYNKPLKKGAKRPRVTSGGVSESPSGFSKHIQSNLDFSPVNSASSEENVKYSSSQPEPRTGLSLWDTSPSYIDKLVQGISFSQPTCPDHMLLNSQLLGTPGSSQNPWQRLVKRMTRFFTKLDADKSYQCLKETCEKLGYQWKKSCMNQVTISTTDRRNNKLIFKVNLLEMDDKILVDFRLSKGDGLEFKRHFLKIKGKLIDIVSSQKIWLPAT

[8] = target: Ribosomal protein S6 kinase alpha-3 (Homo sapiens) (UniProt P51812); experiment: Inhibition of RSK2 Domain 2 K1 labeling site in human Huh-7 cells at 10 uM by KiNativ Profiling analysis relative to control; type: cell-based
Chain of Ribosomal protein S6 kinase alpha-3 (Homo sapiens) (P51812 whole entry, the tested form may be a part): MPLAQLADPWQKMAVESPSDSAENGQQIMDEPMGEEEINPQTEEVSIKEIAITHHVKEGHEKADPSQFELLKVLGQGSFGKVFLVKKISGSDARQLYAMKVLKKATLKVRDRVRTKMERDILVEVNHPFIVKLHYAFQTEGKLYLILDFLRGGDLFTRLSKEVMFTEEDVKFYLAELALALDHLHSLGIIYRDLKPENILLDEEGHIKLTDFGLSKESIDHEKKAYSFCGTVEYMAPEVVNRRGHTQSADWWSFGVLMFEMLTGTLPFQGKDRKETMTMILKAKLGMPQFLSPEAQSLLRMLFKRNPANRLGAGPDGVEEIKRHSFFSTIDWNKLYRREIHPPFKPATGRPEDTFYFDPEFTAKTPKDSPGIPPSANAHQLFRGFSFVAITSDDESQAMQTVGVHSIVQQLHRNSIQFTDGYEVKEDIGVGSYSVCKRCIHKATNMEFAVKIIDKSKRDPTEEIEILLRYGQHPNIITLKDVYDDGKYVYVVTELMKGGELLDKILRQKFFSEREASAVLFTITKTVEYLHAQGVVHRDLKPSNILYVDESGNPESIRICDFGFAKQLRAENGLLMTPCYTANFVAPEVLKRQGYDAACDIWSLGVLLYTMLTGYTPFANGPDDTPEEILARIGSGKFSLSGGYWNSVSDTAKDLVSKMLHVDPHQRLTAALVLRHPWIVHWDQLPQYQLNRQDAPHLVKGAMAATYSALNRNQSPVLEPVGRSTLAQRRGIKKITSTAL

[9] = target: T2, Dual specificity mitogen-activated protein kinase kinase 6 (Homo sapiens) (UniProt P52564); experiment: Inhibition of MAP2K6 K1 labeling site in human Huh-7 cells at 1 uM by KiNativ Profiling analysis relative to control; type: cell-based
T2 sequence (whole entry): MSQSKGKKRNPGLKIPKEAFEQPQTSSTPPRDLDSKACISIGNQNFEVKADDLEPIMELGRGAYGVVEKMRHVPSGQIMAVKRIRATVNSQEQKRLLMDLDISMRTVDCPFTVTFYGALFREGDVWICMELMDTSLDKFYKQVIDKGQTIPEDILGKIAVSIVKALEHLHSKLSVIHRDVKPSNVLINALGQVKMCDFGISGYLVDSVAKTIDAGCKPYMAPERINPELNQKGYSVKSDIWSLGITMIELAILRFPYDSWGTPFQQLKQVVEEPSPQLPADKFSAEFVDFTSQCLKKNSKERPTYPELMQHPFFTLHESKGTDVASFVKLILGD

[10] = target: Phosphatidylinositol 4-kinase type 2-beta (Homo sapiens) (UniProt Q8TCG2); experiment: Inhibition of PI4K2B ATP labeling site in human Huh-7 cells at 1 uM by KiNativ Profiling analysis relative to control; type: cell-based
Chain of Phosphatidylinositol 4-kinase type 2-beta (Homo sapiens) (Q8TCG2 whole entry): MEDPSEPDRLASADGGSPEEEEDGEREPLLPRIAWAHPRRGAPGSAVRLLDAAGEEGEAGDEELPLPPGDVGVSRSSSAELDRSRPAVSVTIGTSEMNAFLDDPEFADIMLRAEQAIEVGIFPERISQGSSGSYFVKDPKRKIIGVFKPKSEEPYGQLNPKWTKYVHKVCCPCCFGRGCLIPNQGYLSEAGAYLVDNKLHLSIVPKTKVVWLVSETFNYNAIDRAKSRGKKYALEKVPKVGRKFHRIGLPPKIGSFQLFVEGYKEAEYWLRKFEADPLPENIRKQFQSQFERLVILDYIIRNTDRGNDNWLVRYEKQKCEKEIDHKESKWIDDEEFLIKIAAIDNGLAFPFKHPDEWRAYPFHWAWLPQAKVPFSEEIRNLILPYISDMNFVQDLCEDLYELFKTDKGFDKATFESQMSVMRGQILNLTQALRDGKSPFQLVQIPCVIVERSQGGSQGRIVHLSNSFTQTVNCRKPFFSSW

SMILES: CCN1CCN(Cc2ccc(NC(=O)c3ccc(C)c(/C=C/c4cnc5[nH]ccc5c4OC)c3)cc2C(F)(F)F)CC1
- inhibition [1]: 20.9%
- inhibition [2]: 79.9%
- residual activity [3]: 8%

SMILES: CCN1CCN(Cc2ccc(NC(=O)c3ccc(C)c(Oc4ccnc5[nH]ccc45)c3)cc2C(F)(F)F)CC1
- inhibition (293-IL-1R): Dose-Dependent Effect
- inhibition [4]: inactive
- inhibition [5]: 4.5%
- inhibition [6]: 31.9%
- inhibition [7]: 12.3%
- inhibition [8]: inactive
- inhibition [9]: 16.3%

SMILES: CNc1cc(Oc2cc(C(=O)Nc3cc(N4CCN(C)CC4)cc(C(F)(F)F)c3)ccc2C)ncn1
- inhibition [10]: 16%
